Measured values: ChEMBL document CHEMBL1201862, “PubChem BioAssay data set” (2004)
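Five compound concentrations were applied to cells in 96-well plates for 48 hours; endpoints were derived by simple linear interpolation of the resulting dose-response curve. GI50: concentration for 50% inhibition of growth.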 The source made the active and inactive calls. No stated cut-off is given here; in the data, active = GI50 up to about 1.1 µM and inactive = higher.

Tests used:
Test in all cases: NCI-60 cell line screen, 48 h
[1] = system: T47D
[2] = system: SF-295
[3] = system: A498
[4] = system: SR
[5] = system: EKVX
[6] = system: OVCAR-8
[7] = system: OVCAR-5
[8] = system: U-251
[9] = system: UO-31
[10] = system: BT-549
[11] = system: SF-268
[12] = system: K562
[13] = system: MDA-MB-435
[14] = system: HL-60
[15] = system: NCI/ADR-RES
[16] = system: SNB-19
[17] = system: HT-29
[18] = system: HOP-92
[19] = system: RPMI-8226
[20] = system: RXF 393
[21] = system: SW-620
[22] = system: LOX IMVI
[23] = system: MOLT-4
[24] = system: Hs-578T
[25] = system: SN12C
[26] = system: MDA-MB-231
[27] = system: M14
[28] = system: IGROV-1
[29] = system: A549
[30] = system: CCRF-CEM
[31] = system: PC-3
[32] = system: SK-MEL-5
[33] = system: HCT-15
[34] = system: TK-10
[35] = system: SF-539
[36] = system: UACC-257
[37] = system: 786-0
[38] = system: MDA-N
[39] = system: UACC-62
[40] = system: OVCAR-3
[41] = system: ACHN
[42] = system: DU-145
[43] = system: SNB-75
[44] = system: NCI-H460
[45] = system: NCI-H522
[46] = system: SK-MEL-28
[47] = system: CAKI-1
[48] = system: NCI-H23
[49] = system: COLO 205
[50] = system: OVCAR-4
[51] = system: HCC 2998
[52] = system: HCT-116
[53] = system: HOP-62
[54] = system: SK-MEL-2
[55] = system: SK-OV-3
[56] = system: KM12
[57] = system: MCF7
[58] = system: Malme-3M
[59] = system: NCI-H226

COc1cc2oc3cc(=O)cc4oc(-c5ccccc5)cc(c2c2c1CCC(c1ccccc1)O2)c43 (centres undefined) was tested, and the GI50 [1] was 17.7 µM (inactive), the GI50 [2] was 19.1 µM (inactive) and the GI50 [3] was 50.4 µM (inactive). The GI50 [4] was 11.1 µM (inactive), the GI50 [5] was 65.6 µM (inactive) and the GI50 [6] was 50 µM (inactive). The GI50 [7] was 56 µM (inactive), the GI50 [8] was 43.1 µM (inactive) and the GI50 [9] was 55.6 µM (inactive). For the same compound, the GI50 [10] was 80.5 µM (inactive), the GI50 [11] was > 100 µM (inactive) and the GI50 [12] was 33 µM (inactive). The GI50 [13] was 22.7 µM (inactive), the GI50 [14] was 25 µM (inactive) and the GI50 [15] was > 100 µM (inactive). For the same compound, the GI50 [16] was 63 µM (inactive), the GI50 [17] was 20.9 µM (inactive) and the GI50 [18] was > 100 µM (inactive). For the same compound, the GI50 [19] was 3.34 µM (inactive), the GI50 [20] was 54.7 µM (inactive) and the GI50 [21] was 67.1 µM (inactive). For the same compound, the GI50 [22] was 31.9 µM (inactive), the GI50 [23] was 8.95 µM (inactive) and the GI50 [24] was 85.9 µM (inactive). The GI50 [25] was 25.2 µM (inactive), the GI50 [26] was 22.3 µM (inactive) and the GI50 [27] was 17.4 µM (inactive). The GI50 [28] was 33.1 µM (inactive), the GI50 [29] was 72.8 µM (inactive) and the GI50 [30] was 61 µM (inactive). The GI50 [31] was 47.8 µM (inactive), the GI50 [32] was 20.4 µM (inactive) and the GI50 [33] was 20.4 µM. The GI50 [34] was 26.6 µM (inactive), the GI50 [35] was 24.5 µM (inactive) and the GI50 [36] was 26.7 µM (inactive). For the same compound, the GI50 [37] was 48.2 µM (inactive), the GI50 [38] was 22 µM (inactive) and the GI50 [39] was 35.1 µM (inactive). The GI50 [40] was 26 µM (inactive), the GI50 [41] was 19.3 µM (inactive) and the GI50 [42] was 24.3 µM (inactive). For the same compound, the GI50 [43] was 79.1 µM (inactive), the GI50 [44] was 27.5 µM (inactive) and the GI50 [45] was 34.8 µM (inactive). The GI50 [46] was 40.7 µM (inactive), the GI50 [47] was 15.7 µM (inactive) and the GI50 [48] was 62.8 µM (inactive). The GI50 [49] was 18.8 µM (inactive), the GI50 [50] was > 100 µM (inactive) and the GI50 [51] was 34.2 µM (inactive). The GI50 [52] was 29.2 µM (inactive), the GI50 [53] was 41 µM (inactive) and the GI50 [54] was 33 µM (inactive). The GI50 [55] was 35 µM (inactive), the GI50 [56] was 17 µM (inactive) and the GI50 [57] was 7.66 µM (inactive). The GI50 [58] was 67.3 µM (inactive) and the GI50 [59] was > 100 µM (inactive).
